Source: ChEMBL document CHEMBL4402539, “Biological effects and activity optimization of small-molecule, drug-like synthetic anion transporters” (Eur J Med Chem, 2019)

Columns and labels:
Assay type in all cases: functional, cell-based
A549 = test: Cytotoxicity in human A549 cells assessed as reduction in cell viability after 18 hrs by MTT assay; conditions: A549, 18 h
CAPAN-1 = test: Cytotoxicity in human Capan1 cells assessed as reduction in cell viability after 18 hrs by MTT assay; conditions: CAPAN-1, 18 h
HCT-116 = test: Cytotoxicity in human HCT116 cells assessed as reduction in cell viability after 18 hrs by MTT assay; conditions: HCT-116, 18 h
HeLa = test: Cytotoxicity in human HeLa cells assessed as reduction in cell viability after 18 hrs by MTT assay

Measured: IC50

CC1(C)c2ccc([nH]2)C2(C)CCCCNC(=O)c3cccc(n3)C(=O)NCCCCC(C)(c3ccc1[nH]3)c1ccc([nH]1)C(C)(C)c1ccc2[nH]1
10 to 15 µM: A549 | CAPAN-1 | HCT-116 | HeLa

CC1(C)c2ccc([nH]2)C2(C)CCCNC(=O)c3cccc(n3)C(=O)NCCCC(C)(c3ccc1[nH]3)c1ccc([nH]1)C(C)(C)c1ccc2[nH]1
10 to 15 µM: A549 | CAPAN-1 | HCT-116 | HeLa
